Columns and labels:
Assay in all cases: biochemical
Design in all cases: DiscoveRx KINOMEscan competition binding, percent of DMSO control signal at 100 nM
Settings in all cases: read-out: Fig. 4a / Percent Control / Compound 1; percent of DMSO control, competition binding
PAK4 = PAK4 (Homo sapiens, UniProt O96013)
IKK-beta = molecular target: T1, IKK-beta (Homo sapiens, UniProt O14920)
T1 construct: gene IKBKB

CSNK1G3 = CSNK1G3 (Homo sapiens, UniProt Q9Y6M4)
PIP5K1A = PIP5K1A (Homo sapiens, UniProt Q99755)
Chain of PIP5K1A (Q99755 whole entry): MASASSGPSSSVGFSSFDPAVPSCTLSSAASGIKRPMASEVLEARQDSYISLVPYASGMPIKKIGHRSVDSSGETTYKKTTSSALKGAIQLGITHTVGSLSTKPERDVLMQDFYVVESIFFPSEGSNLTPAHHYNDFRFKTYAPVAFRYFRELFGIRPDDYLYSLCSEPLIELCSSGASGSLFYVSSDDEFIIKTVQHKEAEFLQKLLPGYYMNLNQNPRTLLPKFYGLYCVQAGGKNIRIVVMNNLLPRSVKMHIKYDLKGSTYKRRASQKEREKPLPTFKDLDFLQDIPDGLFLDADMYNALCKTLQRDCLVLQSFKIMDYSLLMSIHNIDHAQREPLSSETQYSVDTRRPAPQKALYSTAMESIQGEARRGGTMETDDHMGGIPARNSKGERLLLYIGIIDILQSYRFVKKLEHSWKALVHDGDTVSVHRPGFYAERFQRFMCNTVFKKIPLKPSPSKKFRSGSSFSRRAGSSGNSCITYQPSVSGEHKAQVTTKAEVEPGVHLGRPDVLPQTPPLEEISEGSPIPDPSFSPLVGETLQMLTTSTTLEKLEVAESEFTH

CDK7 = CDK7 (Homo sapiens, UniProt P50613)
CSNK1D = CSNK1D (Homo sapiens, UniProt P48730)
ULK1 = ULK1 (Homo sapiens, UniProt O75385)
AXL = AXL (Homo sapiens, UniProt P30530)
PLK1 = PLK1 (Homo sapiens, UniProt P53350)
Chain of PLK1 (P53350 whole entry): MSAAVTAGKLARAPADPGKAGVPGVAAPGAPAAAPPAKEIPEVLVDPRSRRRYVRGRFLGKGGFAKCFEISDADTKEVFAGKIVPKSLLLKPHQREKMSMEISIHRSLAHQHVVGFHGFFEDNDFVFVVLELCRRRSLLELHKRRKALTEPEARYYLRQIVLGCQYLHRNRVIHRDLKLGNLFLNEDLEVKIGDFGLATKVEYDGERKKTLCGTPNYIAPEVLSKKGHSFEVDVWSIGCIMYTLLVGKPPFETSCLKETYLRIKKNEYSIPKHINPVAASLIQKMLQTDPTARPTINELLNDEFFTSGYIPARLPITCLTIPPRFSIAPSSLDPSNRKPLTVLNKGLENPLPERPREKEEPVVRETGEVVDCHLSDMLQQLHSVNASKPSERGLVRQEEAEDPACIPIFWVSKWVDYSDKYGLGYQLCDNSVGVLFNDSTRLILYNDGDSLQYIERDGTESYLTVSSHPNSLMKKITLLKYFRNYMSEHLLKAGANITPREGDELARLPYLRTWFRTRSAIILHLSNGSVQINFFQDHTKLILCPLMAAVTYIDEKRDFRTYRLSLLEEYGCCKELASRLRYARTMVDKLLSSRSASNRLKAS

[1] = molecular target: T2, RPS6KA5(Kin.Dom.1-N-terminal) (Homo sapiens, UniProt O75582)
T2 construct: Kin.Dom.1-N-terminal

PCTK3 = molecular target: T3, PCTK3 (Homo sapiens, UniProt Q07002)
T3 construct: gene CDK18

[2] = molecular target: T4, RPS6KA4(Kin.Dom.1-N-terminal) (Homo sapiens, UniProt O75676)
T4 construct: Kin.Dom.1-N-terminal
T4 sequence (O75676 whole entry): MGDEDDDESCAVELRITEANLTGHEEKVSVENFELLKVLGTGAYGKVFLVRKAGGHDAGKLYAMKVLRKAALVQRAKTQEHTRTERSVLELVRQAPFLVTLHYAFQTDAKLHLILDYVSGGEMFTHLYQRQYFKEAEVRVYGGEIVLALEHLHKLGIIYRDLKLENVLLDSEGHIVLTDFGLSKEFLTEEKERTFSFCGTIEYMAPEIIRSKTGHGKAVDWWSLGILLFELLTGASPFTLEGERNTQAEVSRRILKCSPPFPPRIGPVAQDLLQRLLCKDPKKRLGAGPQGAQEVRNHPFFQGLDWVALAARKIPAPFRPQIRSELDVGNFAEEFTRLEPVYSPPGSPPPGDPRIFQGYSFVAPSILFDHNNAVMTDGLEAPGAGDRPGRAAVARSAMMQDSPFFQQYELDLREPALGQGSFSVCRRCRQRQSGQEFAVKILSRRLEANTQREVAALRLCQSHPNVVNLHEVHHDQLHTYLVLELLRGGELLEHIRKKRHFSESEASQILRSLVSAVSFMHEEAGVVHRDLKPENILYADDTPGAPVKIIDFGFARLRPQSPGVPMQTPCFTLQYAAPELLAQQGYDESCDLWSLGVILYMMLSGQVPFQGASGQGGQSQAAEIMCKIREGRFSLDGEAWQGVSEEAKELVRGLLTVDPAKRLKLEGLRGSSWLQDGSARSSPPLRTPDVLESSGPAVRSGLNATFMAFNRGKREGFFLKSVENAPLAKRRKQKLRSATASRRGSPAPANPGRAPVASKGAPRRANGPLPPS

p38-beta = molecular target: T5, p38-beta (Homo sapiens, UniProt Q15759)
T5 construct: gene MAPK11
T5 sequence (Q15759 whole entry): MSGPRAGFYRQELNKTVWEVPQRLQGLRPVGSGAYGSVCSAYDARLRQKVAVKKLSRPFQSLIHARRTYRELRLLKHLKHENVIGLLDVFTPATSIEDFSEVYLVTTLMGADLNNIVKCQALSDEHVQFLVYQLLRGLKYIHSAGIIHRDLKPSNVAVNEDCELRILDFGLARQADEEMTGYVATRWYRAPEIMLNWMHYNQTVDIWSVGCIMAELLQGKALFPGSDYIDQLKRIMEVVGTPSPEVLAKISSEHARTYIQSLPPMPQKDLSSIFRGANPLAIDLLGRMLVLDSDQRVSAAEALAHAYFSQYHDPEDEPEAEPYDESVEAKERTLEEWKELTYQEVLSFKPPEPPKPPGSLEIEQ

WNK3 = WNK3 (Homo sapiens, UniProt Q9BYP7)
Chain of WNK3 (Q9BYP7 whole entry): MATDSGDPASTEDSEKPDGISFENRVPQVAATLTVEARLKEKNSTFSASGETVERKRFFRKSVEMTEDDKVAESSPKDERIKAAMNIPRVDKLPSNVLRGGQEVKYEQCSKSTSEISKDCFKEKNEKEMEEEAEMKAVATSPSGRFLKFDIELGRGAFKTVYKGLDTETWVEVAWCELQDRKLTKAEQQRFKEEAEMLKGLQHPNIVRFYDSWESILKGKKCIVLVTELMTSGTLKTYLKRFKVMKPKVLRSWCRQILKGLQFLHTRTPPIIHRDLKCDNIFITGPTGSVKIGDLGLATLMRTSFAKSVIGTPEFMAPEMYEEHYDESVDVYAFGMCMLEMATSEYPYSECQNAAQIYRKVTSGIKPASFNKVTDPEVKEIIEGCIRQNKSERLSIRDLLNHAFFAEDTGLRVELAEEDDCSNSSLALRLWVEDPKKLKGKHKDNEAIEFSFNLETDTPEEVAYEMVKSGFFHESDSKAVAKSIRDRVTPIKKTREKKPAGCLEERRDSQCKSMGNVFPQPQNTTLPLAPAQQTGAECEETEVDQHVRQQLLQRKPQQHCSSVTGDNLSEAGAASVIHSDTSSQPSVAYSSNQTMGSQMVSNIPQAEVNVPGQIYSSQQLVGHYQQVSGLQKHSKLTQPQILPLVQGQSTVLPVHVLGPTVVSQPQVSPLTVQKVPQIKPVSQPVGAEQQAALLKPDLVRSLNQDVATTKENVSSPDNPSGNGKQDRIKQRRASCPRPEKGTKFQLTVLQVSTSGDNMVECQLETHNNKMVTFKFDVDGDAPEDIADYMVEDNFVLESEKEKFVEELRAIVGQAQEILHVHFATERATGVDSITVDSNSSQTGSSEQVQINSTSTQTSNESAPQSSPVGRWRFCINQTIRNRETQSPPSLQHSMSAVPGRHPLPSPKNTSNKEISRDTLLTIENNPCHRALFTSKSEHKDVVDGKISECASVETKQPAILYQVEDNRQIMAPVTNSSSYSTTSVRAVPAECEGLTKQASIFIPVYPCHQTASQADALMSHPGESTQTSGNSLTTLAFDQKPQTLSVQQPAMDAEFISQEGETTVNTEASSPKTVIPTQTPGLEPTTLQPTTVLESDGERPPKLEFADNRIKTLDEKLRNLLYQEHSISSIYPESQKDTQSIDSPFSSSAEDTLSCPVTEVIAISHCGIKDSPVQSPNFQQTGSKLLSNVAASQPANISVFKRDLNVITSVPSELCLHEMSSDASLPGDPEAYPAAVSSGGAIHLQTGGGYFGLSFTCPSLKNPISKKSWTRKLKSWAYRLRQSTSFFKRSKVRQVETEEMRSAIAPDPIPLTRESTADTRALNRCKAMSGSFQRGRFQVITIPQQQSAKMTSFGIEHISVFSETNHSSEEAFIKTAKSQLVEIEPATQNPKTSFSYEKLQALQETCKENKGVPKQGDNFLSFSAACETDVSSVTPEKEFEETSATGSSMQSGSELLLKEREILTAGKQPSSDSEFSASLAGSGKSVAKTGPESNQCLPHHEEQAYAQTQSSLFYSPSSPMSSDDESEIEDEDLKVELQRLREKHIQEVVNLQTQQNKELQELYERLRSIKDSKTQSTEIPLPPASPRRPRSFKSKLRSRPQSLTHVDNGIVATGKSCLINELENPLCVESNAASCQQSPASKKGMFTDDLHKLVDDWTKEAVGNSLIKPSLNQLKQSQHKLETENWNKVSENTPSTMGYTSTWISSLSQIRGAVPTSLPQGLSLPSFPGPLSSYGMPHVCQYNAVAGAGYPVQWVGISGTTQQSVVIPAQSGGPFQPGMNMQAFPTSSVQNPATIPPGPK

GAK = GAK (Homo sapiens, UniProt O14976)
EPHB1 = EPHB1 (Homo sapiens, UniProt P54762)
YANK3 = molecular target: T6, YANK3 (Homo sapiens, UniProt Q86UX6)
T6 construct: gene STK32C

MKNK1 = MKNK1 (Homo sapiens, UniProt Q9BUB5)
MARK4 = MARK4 (Homo sapiens, UniProt Q96L34)
HASPIN = HASPIN (Homo sapiens, UniProt Q8TF76)
PFTAIRE2 = molecular target: T7, PFTAIRE2 (Homo sapiens, UniProt Q96Q40)
T7 construct: gene CDK15

CASK = CASK (Homo sapiens, UniProt O14936)
SRMS = SRMS (Homo sapiens, UniProt Q9H3Y6)
FLT3(ITD) = FLT3(ITD) (Homo sapiens, UniProt P36888, ITD)
Chain of FLT3(ITD) (P36888 564-993, change not shown): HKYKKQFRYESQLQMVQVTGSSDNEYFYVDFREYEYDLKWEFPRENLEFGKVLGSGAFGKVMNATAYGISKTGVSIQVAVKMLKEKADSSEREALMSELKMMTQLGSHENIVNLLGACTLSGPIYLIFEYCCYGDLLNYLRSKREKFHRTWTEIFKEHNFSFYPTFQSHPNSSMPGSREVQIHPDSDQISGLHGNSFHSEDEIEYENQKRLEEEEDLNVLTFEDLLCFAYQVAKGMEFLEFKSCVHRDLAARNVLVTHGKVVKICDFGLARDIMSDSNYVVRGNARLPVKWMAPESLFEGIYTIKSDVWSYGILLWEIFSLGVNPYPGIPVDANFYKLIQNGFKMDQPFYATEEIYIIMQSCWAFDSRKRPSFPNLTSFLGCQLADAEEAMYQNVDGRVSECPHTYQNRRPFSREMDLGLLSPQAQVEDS

CSNK1G1 = CSNK1G1 (Homo sapiens, UniProt Q9HCP0)
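Also: KINOMEscan kinase panel binding assay, signal normalized between DMSO as 100% and a positive control compound as 0%.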

Chain of CSNK1G3 (Q9Y6M4 whole entry): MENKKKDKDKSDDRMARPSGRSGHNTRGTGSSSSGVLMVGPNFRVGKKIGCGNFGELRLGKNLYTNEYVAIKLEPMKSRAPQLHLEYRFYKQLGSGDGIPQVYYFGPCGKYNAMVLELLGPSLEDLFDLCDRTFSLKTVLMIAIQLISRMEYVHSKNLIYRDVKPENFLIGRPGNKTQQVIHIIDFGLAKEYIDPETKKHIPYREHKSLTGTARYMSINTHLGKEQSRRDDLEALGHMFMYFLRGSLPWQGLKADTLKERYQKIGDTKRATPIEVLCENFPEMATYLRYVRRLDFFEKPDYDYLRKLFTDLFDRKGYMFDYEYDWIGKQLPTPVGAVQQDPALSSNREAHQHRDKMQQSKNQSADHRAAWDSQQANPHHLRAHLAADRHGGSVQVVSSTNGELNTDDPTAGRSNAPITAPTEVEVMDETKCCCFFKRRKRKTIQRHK

Cc1cnc2nc1Nc1cccc(c1)COCc1cc(ccc1OCCN1CCCC1)N2 [Compound 1]
remaining binding at 0.1 µM (PAK4): 100% | remaining binding at 0.1 µM (IKK-beta): 97% | remaining binding at 0.1 µM (CSNK1G3): 100% | remaining binding at 0.1 µM (PIP5K1A): 49% | remaining binding at 0.1 µM (CDK7): 77% | remaining binding at 0.1 µM (CSNK1D): 100% | remaining binding at 0.1 µM (ULK1): 52% | remaining binding at 0.1 µM (AXL): 90% | remaining binding at 0.1 µM (PLK1): 94% | remaining binding at 0.1 µM [1]: 83% | remaining binding at 0.1 µM (PCTK3): 85% | remaining binding at 0.1 µM [2]: 100% | remaining binding at 0.1 µM (p38-beta): 86% | remaining binding at 0.1 µM (WNK3): 95% | remaining binding at 0.1 µM (GAK): 36% | remaining binding at 0.1 µM (EPHB1): 97% | remaining binding at 0.1 µM (YANK3): 99% | remaining binding at 0.1 µM (MKNK1): 93% | remaining binding at 0.1 µM (MARK4): 77% | remaining binding at 0.1 µM (HASPIN): 79% | remaining binding at 0.1 µM (PFTAIRE2): 85% | remaining binding at 0.1 µM (CASK): 73% | remaining binding at 0.1 µM (SRMS): 75% | remaining binding at 0.1 µM (FLT3(ITD)): 17% | remaining binding at 0.1 µM (CSNK1G1): 91%
